Test results as given in patent publication US20100222269A1, “IMPROVED DERIVATIVES OF AMYLIN” (priority 2007, published 2010).
Like-named read-outs stand apart in the source and are kept apart here. Starred links: 1 amine or outer side, 2 acyl side, 3 side chain; linkers in the order of their positions; H or OH if unused. Positions of bridges follow the written chain, without caps; N, C: chain ends. Residues, ends and D or L forms follow the SMILES beside them. Groups on a side chain read outwards from the residue. *: point of attachment. C20 diacid = O=C(O)CCCCCCCCCCCCCCCCCCC(=O)*; C18 diacid = O=C(O)CCCCCCCCCCCCCCCCC(=O)*; γGlu = O=C(O)[C@H](CCC(=O)[*:2])N[*:1]; AEEA = NCCOCCOCC(=O)O

Biological target: T1, Amylin 3(a) receptor (human calcitonin receptor (CTa) with RAMP-3) (Homo sapiens, UniProt O60896+P30988)
T1 construct: expressed in transfected cells; host or cells: BHK570 (baby hamster kidney) cells, stably transfected, with CRE-luciferase reporter
Assay: Amylin luciferase assay (CRE-luciferase reporter in BHK Amylin 3(a)//CRE-luc cells)
Type: cell-based
From the text: It has previously been published (Poyner D R et al 2002, Pharmacological Reviews 54(2) 233-246) that activation of Amylin receptors (coexpression of Calcitonin receptor and receptor activity modifying peptides RAMPs) by Amylin leads to an increase in the intracellular concentration of cAMP. Consequently, transcription is activated at promotors containing multiple copies of the cAMP response element (CRE). It is thus possible to measure Amylin activity by use of a CRE luciferase reporter gene introduced into BHK cells also expressing an Amylin receptor.
2. Construction of an Amylin 3(a)/CRE-luc Cell Line
A BHK570 cell line stably transfected with the human calcitonin receptor (CTa) and a CRE-responsive luciferase reportergene. The cell line was further transfected with RAMP-3, using standard methods. This turns the Calcitonin receptor into an Amylin 3(a) receptor. Methotrexate, Neomycin, and Hygromycin are selection markers for luciferase, the Calcitonin receptor, and RAMP-3, respectively.
3. Amylin Luciferase Assay
To perform activity assays, BHK Amylin 3(a)//CRE-luc cells were seeded in white 96 well culture plates at a density of about 20.000 cells/well. The cells were in 100 μl growth medium (DMEM with 10% FBS, 1% Pen/Strep, 1 mM Na-pyruvate, 250 nM Methotrexate, 500 μg/ml Neomycin, and 400 μg/ml Hygromycin). After incubation overnight at 37° C. and 5% CO2, the growth medium was replaced by 50 μl/well assay medium (DMEM (without phenol red), Glumamax™, 10% FBS, and 10 mM Hepes, pH 7,4). Further, 50 μl/well of standard or sample in assay buffer were added. After 4 hours incubation at 37° C. and 5% CO2, the assay medium with standard or sample were removed and replaced by 100 μl/well PBS. Further, 100 μl/well LucLite™ was added. The plates were sealed and incubated at room temperature for 30 minutes. Finally, luminescence was measured on a TopCounter (Packard) in SPC (single photon counting) mode.

[1] = BHK570 cells with human calcitonin receptor (CTa), RAMP-3 and CRE-luciferase reporter, 4 hours incubation, read-out: Potency luciferase assay

T1 sequence (O60896 24-148): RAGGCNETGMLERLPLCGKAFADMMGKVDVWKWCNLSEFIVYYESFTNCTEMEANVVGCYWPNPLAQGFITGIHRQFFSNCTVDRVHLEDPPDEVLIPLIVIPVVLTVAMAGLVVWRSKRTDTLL
T1 sequence (P30988 25-474): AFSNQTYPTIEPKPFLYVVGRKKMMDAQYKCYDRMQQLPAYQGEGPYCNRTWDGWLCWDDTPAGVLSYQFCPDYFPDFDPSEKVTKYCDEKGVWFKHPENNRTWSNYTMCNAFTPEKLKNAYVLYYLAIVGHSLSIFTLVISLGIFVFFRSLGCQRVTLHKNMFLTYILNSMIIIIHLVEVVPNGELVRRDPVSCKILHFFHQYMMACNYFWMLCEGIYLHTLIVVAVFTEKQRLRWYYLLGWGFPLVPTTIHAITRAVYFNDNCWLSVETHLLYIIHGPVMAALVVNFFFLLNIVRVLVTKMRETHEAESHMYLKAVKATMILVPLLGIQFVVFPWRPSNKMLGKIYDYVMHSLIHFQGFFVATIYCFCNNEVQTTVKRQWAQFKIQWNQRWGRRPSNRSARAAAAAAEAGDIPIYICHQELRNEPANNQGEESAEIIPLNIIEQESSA

SMILES	EC50 [1] [pM]	EC50 [pM]
CC[C@H](C)[C@H](NC(=O)[C@H](CCCCNC(=O)COCCOCCNC(=O)COCCOCCNC(=O)CCCCCCCCCCCCCCCCC(=O)O)NC(=O)CNC(=O)[C@H](Cc1ccccc1)NC(=O)[C@H](CC(N)=O)NC(=O)[C@H](CC(N)=O)NC(=O)[C@H](CO)NC(=O)[C@H](CO)NC(=O)[C@H](CCCNC(=N)N)NC(=O)[C@@H](NC(=O)[C@H](CC(C)C)NC(=O)[C@H](Cc1ccccc1)NC(=O)[C@H](CC(N)=O)NC(=O)[C@H](C)NC(=O)[C@H](CC(C)C)NC(=O)[C@H](CCCNC(=N)N)NC(=O)[C@H](CCC(N)=O)NC(=O)[C@@H](NC(=O)[C@H](C)NC(=O)[C@@H]1CSSC[C@H](NC(=O)[C@@H](N)CCCCN)C(=O)N[C@@H](CC(N)=O)C(=O)N[C@@H]([C@@H](C)O)C(=O)N[C@@H](C)C(=O)N[C@@H]([C@@H](C)O)C(=O)N1)[C@@H](C)O)C(C)C)C(=O)N[C@@H](CC(C)C)C(=O)N1CCC[C@H]1C(=O)N1CCC[C@H]1C(=O)N[C@H](C(=O)N[C@@H](CC(N)=O)C(=O)N[C@H](C(=O)NCC(=O)N[C@@H](CO)C(=O)N[C@@H](CC(N)=O)C(=O)N[C@H](C(=O)N[C@@H](Cc1ccc(O)cc1)C(N)=O)[C@@H](C)O)C(C)C)[C@@H](C)O [Example 9, N-epsilon25-(2-{2-[2-(2-{2-[2-(17-carboxyheptadecanoylamino)ethoxy]ethoxy}acetylamino)ethoxy]ethoxy}acetyl)-[Arg18,Lys25]-pramlintide (1-37)] (H-KCNTATCATQRLANFLVRSSNNFGK([AEEA-AEEA-C18 diacid])ILPPTNVGSNTY-NH2; disulfide 2-7)	40	
CC[C@H](C)[C@H](NC(=O)[C@@H]1CCCN1C(=O)CNC(=O)[C@H](Cc1ccccc1)NC(=O)[C@H](CC(N)=O)NC(=O)[C@H](CC(N)=O)NC(=O)[C@H](CO)NC(=O)[C@H](CO)NC(=O)[C@H](Cc1c[nH]cn1)NC(=O)[C@@H](NC(=O)[C@H](CC(C)C)NC(=O)[C@H](Cc1ccccc1)NC(=O)[C@H](CC(N)=O)NC(=O)[C@H](C)NC(=O)[C@H](CC(C)C)NC(=O)[C@H](CCCNC(=N)N)NC(=O)[C@H](CCC(N)=O)NC(=O)[C@@H](NC(=O)[C@H](C)NC(=O)[C@@H]1CSSC[C@H](NC(=O)[C@@H](N)CCCCN)C(=O)N[C@@H](CCCCNC(=O)COCCOCCNC(=O)COCCOCCNC(=O)CC[C@H](NC(=O)CCCCCCCCCCCCCCCCC(=O)O)C(=O)O)C(=O)N[C@@H]([C@@H](C)O)C(=O)N[C@@H](C)C(=O)N[C@@H]([C@@H](C)O)C(=O)N1)[C@@H](C)O)C(C)C)C(=O)N[C@@H](CC(C)C)C(=O)N1CCC[C@H]1C(=O)N1CCC[C@H]1C(=O)N[C@H](C(=O)N[C@@H](CC(N)=O)C(=O)N[C@H](C(=O)NCC(=O)N[C@@H](CO)C(=O)N[C@@H](CC(N)=O)C(=O)N[C@H](C(=O)N[C@@H](Cc1ccc(O)cc1)C(N)=O)[C@@H](C)O)C(C)C)[C@@H](C)O [Example 11, N-epsilon3-[2-(2-{2-[2-(2-{2-[(S)-4-carboxy-4-(17-carboxyheptadecanoylamino)butyrylamino]ethoxy}ethoxy)acetylamino]ethoxy}ethoxy)acetyl]-[Lys3]-pramlintide (1-37)] (H-KCK([AEEA-AEEA-γGlu-C18 diacid])TATCATQRLANFLVHSSNNFGPILPPTNVGSNTY-NH2; disulfide 2-7; N-terminus assumed)		200
CC[C@H](C)[C@H](NC(=O)[C@@H]1CCCN1C(=O)CNC(=O)[C@H](Cc1ccccc1)NC(=O)[C@H](CC(N)=O)NC(=O)[C@H](CC(N)=O)NC(=O)[C@H](CO)NC(=O)[C@H](CO)NC(=O)[C@H](Cc1c[nH]cn1)NC(=O)[C@@H](NC(=O)[C@H](CC(C)C)NC(=O)[C@H](Cc1ccccc1)NC(=O)[C@H](CC(N)=O)NC(=O)[C@H](C)NC(=O)[C@H](CC(C)C)NC(=O)[C@H](CCCNC(=N)N)NC(=O)[C@H](CCC(N)=O)NC(=O)[C@@H](NC(=O)[C@H](C)NC(=O)[C@@H]1CSSC[C@H](NC(=O)[C@H](CCCCN)NC(=O)[C@H](CCCNC(=N)N)NC(=O)CC[C@H](NC(=O)CCCCCCCCCCCCCCCCCCC(=O)O)C(=O)O)C(=O)N[C@@H](CC(N)=O)C(=O)N[C@@H]([C@@H](C)O)C(=O)N[C@@H](C)C(=O)N[C@@H]([C@@H](C)O)C(=O)N1)[C@@H](C)O)C(C)C)C(=O)N[C@@H](CC(C)C)C(=O)N1CCC[C@H]1C(=O)N1CCC[C@H]1C(=O)N[C@H](C(=O)N[C@@H](CC(N)=O)C(=O)N[C@H](C(=O)NCC(=O)N[C@@H](CO)C(=O)N[C@@H](CC(N)=O)C(=O)N[C@H](C(=O)N[C@@H](Cc1ccc(O)cc1)C(N)=O)[C@@H](C)O)C(C)C)[C@@H](C)O [Example 49, N-alpha-[(S)-4-carboxy-4-(19-carboxynonadecanoylamino)butyryl]-Arg-pramlintide (1-37)] ({C20 diacid-γGlu}-RKCNTATCATQRLANFLVHSSNNFGPILPPTNVGSNTY-NH2; disulfide 3-8; C-terminus assumed)	200	
CC[C@H](C)[C@H](NC(=O)[C@@H]1CCCN1C(=O)CNC(=O)[C@H](Cc1ccccc1)NC(=O)[C@H](CC(N)=O)NC(=O)[C@H](CC(N)=O)NC(=O)[C@H](CO)NC(=O)[C@H](CO)NC(=O)[C@H](Cc1c[nH]cn1)NC(=O)[C@@H](NC(=O)[C@H](CC(C)C)NC(=O)[C@H](Cc1ccccc1)NC(=O)[C@H](CC(N)=O)NC(=O)[C@H](C)NC(=O)[C@H](CC(C)C)NC(=O)[C@H](CCCNC(=N)N)NC(=O)[C@H](CCC(N)=O)NC(=O)[C@@H](NC(=O)[C@H](C)NC(=O)[C@@H]1CSSC[C@H](NC(=O)[C@@H](N)CCCCN)C(=O)N[C@@H](CCCCNC(=O)COCCOCCNC(=O)COCCOCCNC(=O)CC[C@H](NC(=O)CCCCCCCCCCCCCCCCCCC(=O)O)C(=O)O)C(=O)N[C@@H]([C@@H](C)O)C(=O)N[C@@H](C)C(=O)N[C@@H]([C@@H](C)O)C(=O)N1)[C@@H](C)O)C(C)C)C(=O)N[C@@H](CC(C)C)C(=O)N1CCC[C@H]1C(=O)N1CCC[C@H]1C(=O)N[C@H](C(=O)N[C@@H](CC(N)=O)C(=O)N[C@H](C(=O)NCC(=O)N[C@@H](CO)C(=O)N[C@@H](CC(N)=O)C(=O)N[C@H](C(=O)N[C@@H](Cc1ccc(O)cc1)C(N)=O)[C@@H](C)O)C(C)C)[C@@H](C)O [Example 12, N-epsilon3-[2-(2-{2-[2-(2-{2[(S)-4-carboxy-4-(19-carboxynonadecanoylamino)butyrylamino]ethoxy}ethoxy)acetylamino]ethoxy}ethoxy)acetyl]-[Lys3]-pramlintide (1-37)] (H-KCK([AEEA-AEEA-γGlu-C20 diacid])TATCATQRLANFLVHSSNNFGPILPPTNVGSNTY-NH2; disulfide 2-7; N-terminus and C-terminus assumed)	300	
CC[C@H](C)[C@H](NC(=O)[C@@H]1CCCN1C(=O)CNC(=O)[C@H](Cc1ccccc1)NC(=O)[C@H](CC(N)=O)NC(=O)[C@H](CC(N)=O)NC(=O)[C@H](CO)NC(=O)[C@H](CO)NC(=O)[C@H](Cc1c[nH]cn1)NC(=O)[C@H](CCCCNC(=O)COCCOCCNC(=O)COCCOCCNC(=O)CCCCCCCCCCCCCCCCCCC(=O)O)NC(=O)[C@H](CC(C)C)NC(=O)[C@H](Cc1ccccc1)NC(=O)[C@H](CC(N)=O)NC(=O)[C@H](C)NC(=O)[C@H](CC(C)C)NC(=O)[C@H](CCCNC(=N)N)NC(=O)[C@H](CCC(N)=O)NC(=O)[C@@H](NC(=O)[C@H](C)NC(=O)[C@@H]1CSSC[C@H](NC(=O)[C@@H](N)CCCCN)C(=O)N[C@@H](CC(N)=O)C(=O)N[C@@H]([C@@H](C)O)C(=O)N[C@@H](C)C(=O)N[C@@H]([C@@H](C)O)C(=O)N1)[C@@H](C)O)C(=O)N[C@@H](CC(C)C)C(=O)N1CCC[C@H]1C(=O)N1CCC[C@H]1C(=O)N[C@H](C(=O)N[C@@H](CC(N)=O)C(=O)N[C@H](C(=O)NCC(=O)N[C@@H](CO)C(=O)N[C@@H](CC(N)=O)C(=O)N[C@H](C(=O)N[C@@H](Cc1ccc(O)cc1)C(N)=O)[C@@H](C)O)C(C)C)[C@@H](C)O [Example 8, N-epsilon17-(2-{2-[2-(2-{2-[2-(19-carboxynonadecanoylamino)ethoxy]ethoxy}acetylamino)ethoxy]ethoxy}acetyl)-[Lys17]-pramlintide (1-37)] (H-KCNTATCATQRLANFLK([AEEA-AEEA-C20 diacid])HSSNNFGPILPPTNVGSNTY-NH2; disulfide 2-7; N-terminus assumed)		100
